Measured values from patent publication US11827580B2, “Aminotetraline activators of serotonin receptors” (ATAI Life Sciences AG, priority 2021, dated 2023).
pEC50: −log10 of the molar value. Structures can show the parent of a compound that is named as a salt.

Key:
5HT2A [1] = biological target: T1, 5HT2A (Homo sapiens, UniProt P28223); assay: Calcium mobilization assay (Gq signaling); assay type: cell-based; set-up: host or cells: U2OS (human), stably transfected
Source text: (§1) Calcium Mobilization Assay Method (Performed by DiscoveRx Eurofins)
(§2) The Calcium No-Wash^PLUS assay monitors the activation of a GPCR via Gq secondary messenger signaling in a live cell, non-imaging assay format. Calcium mobilization in PathHunter® cell lines or other cell lines stably expressing Gq-coupled GPCRs is monitored using a calcium-sensitive dye that is loaded into cells. GPCR activation by a compound results in the release of calcium from intracellular stores and an increase in dye fluorescence that is measured in real-time.
Cell lines expressing the GPCR of interest were expanded from freezer stocks according to standard procedures. Human 5-HT2A, 5-HT2B or 5-HT2C receptor-mediated calcium mobilization was evaluated in stably transfected human-derived U2OS (5-HT2A or 5-HT2B) or HEK (5-HT2B) cells. Cells were seeded in a total volume of 20 μL into black-walled, clear-bottom, Poly-D-lysine coated 384-well microplates and incubated at 37° C. overnight prior to testing.
Assays were performed in 1× Dye Loading Buffer consisting of 1× Dye, 1× Additive A and 2.5 mM Probenecid in HBSS/20 mM Hepes. Probenicid was prepared fresh. Cells were loaded with dye prior to testing. Media was aspirated from cells and replaced with 20 μL Dye Loading Buffer. Cells were incubated for 45 minutes at room temperature.
For agonist determination, cells were incubated with sample to induce response. After dye loading, cells were removed from the incubator and 10 μL HBSS/20 mM Hepes was added. 3× vehicle was included in the buffer when performing agonist dose curves to define the EC80 for subsequent antagonist assays. Cells were incubated for 30 minutes at room temperature in the dark to equilibrate plate temperature.
(§3) Intermediate dilution of sample stocks was performed to generate 4× sample in assay buffer. Compound agonist activity was measured on a FLIPR Tetra (MDS). Calcium mobilization was monitored for 2 minutes and 10 μL 4× sample in HBSS/20 mM Hepes was added to the cells seconds into the assay.
Compound activity data was analyzed using CBIS data analysis suite (ChemInnovation, CA). For agonist mode assays, percentage activity is calculated using the following formula: % Activity=100%×(mean RFU of test sample−mean RFU of vehicle control)/(mean MAX RFU control ligand−mean RFU of vehicle control).
In these studies, the MAX RFU was generated by using 0.1 μM serotonin for the calcium mobilization assay.

Human 5-HT1A receptor = biological target: T2, Human 5-HT1A receptor (Homo sapiens, UniProt P08908); assay: cAMP secondary messenger pathway assay (HitHunter cAMP, Gi agonist mode); assay type: cell-based; details: CHO cells, forskolin present, read-out: EC50 5-HT1A (Gi signaling)
T2 construct: host or cells: CHO (hamster), stably transfected, cAMP Hunter cell line
T2 sequence (P08908 1-422): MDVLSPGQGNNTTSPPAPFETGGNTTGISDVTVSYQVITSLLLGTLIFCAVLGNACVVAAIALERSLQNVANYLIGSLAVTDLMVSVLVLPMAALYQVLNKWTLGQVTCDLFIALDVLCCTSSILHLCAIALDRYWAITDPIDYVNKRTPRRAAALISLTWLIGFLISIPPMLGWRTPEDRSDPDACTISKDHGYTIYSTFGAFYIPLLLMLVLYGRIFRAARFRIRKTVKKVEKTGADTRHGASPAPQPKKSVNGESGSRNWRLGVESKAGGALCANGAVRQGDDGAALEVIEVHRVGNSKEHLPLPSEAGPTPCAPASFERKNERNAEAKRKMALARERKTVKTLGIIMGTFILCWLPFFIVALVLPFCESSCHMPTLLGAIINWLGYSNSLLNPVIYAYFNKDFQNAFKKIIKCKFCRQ
Source text: cAMP Secondary Messenger Pathway Assay Method (Performed by DiscoveRx Eurofins)
DiscoverX has developed a panel of cell lines stably expressing non-tagged GPCRs that signal through cAMP. Hit Hunter® cAMP assays monitor the activation of a GPCR via Gi and Gs secondary messenger signaling in a homogenous, non-imaging assay format using a technology developed by DiscoverX called Enzyme Fragment Complementation (EFC) with β-galactosidase (β-Gal) as the functional reporter. The enzyme is split into two complementary portions: EA for Enzyme Acceptor and ED for Enzyme Donor. ED is fused to cAMP and in the assay competes with cAMP generated by cells for binding to a cAMP-specific antibody. Active β-Gal is formed by complementation of exogenous EA to any unbound ED-cAMP. Active enzyme can then convert a chemiluminescent substrate, generating an output signal detectable on a standard microplate reader.
cAMP Hunter cell lines were expanded from freezer stocks according to standard procedures. Human 5-HT1A receptor-mediated cAMP signaling was evaluated in stably transfected hamster-derived CHO cells. Cells were seeded in a total volume of 20 μL into white walled, 384-well microplates and incubated at 37° C. overnight. cAMP modulation was determined using the DiscoverX HitHunter cAMP XS+ assay. […]
Compound activity was analyzed using CBIS data analysis suite (ChemInnovation, CA). […]

5HT2A [2] = biological target: T1, 5HT2A; assay: PathHunter β-Arrestin assay; assay type: cell-based; set-up: host or cells: U2OS (human), stably transfected
Source text: Arrestin Pathway (Performed by DiscoverX Eurofins)
The PathHunter® β-Arrestin assay monitors the activation of a GPCR in a homogenous, non-imaging assay format using a technology developed by DiscoverX called Enzyme Fragment Complementation (EFC) with β-galactosidase (β-Gal) as the functional reporter. […] EA is fused to β-Arrestin and PK is fused to the GPCR of interest. When the GPCR is activated and β-Arrestin is recruited to the receptor, ED and EA complementation occurs, restoring β-Gal activity which is measured using chemiluminescent PathHunter® Detection Reagents.
PathHunter cell lines (DiscoveRx Eurofins) were expanded from freezer stocks according to standard procedures. Human 5-HT2A receptor-mediated GPCR β-arrestin activity was evaluated in stably transfected human-derived U2OS cells. Cells were seeded in a total […] into white walled, 384-well microplates and incubated at 37° C. overnight prior to testing.
For agonist determination, cells were incubated with sample to induce response. Intermediate dilution of sample stocks was performed to generate 5× sample in assay buffer. 5 μL of 5× sample was added to cells and incubated at 37° C. or room temperature for 120 minutes. Vehicle concentration was 1%.
β-Arrestin assay signal was generated through a single addition of 12.5 or 15 μL (50% v/v) of PathHunter Detection reagent cocktail, followed by a one hour incubation at room temperature. Microplates were read following signal generation with a PerkinElmer Envision™ instrument for chemiluminescent signal detection.
Compound activity was analyzed using CBIS data analysis suite (ChemInnovation, CA). For agonist mode assays, percentage activity was calculated using the following formula: % Activity=100%×(mean RLU of test sample−mean RLU of vehicle control)/(mean MAX control ligand−mean RLU of vehicle control).
In these studies, the MAX control ligand response was generated using 1 μM serotonin.

5-HT receptors = details: cited from earlier work
5HT2A [3] = biological target: T1, 5HT2A; assay: 5HT2A activation (%) max at two concentrations (Table 1); assay type: cell-based; details: for 5HT2A activation (%) max @ 03 μM: 03 μM [sic]; for 5HT2A activation (%) max @ 30 μM: 30 μM (first value of the cell)
[4] = in comparison to mescaline or 2,5-dimethoxy-4-methylphenylisopropylamine at similar doses; cited from earlier work
Human 5-HT2C receptor = biological target: T3, Human 5-HT2C receptor (Homo sapiens, UniProt P28335); assay: Calcium mobilization assay (Gq signaling); assay type: cell-based
T3 construct: host or cells: U2OS or HEK (not assigned to 5-HT2C in the text)
T3 sequence (P28335 33-458): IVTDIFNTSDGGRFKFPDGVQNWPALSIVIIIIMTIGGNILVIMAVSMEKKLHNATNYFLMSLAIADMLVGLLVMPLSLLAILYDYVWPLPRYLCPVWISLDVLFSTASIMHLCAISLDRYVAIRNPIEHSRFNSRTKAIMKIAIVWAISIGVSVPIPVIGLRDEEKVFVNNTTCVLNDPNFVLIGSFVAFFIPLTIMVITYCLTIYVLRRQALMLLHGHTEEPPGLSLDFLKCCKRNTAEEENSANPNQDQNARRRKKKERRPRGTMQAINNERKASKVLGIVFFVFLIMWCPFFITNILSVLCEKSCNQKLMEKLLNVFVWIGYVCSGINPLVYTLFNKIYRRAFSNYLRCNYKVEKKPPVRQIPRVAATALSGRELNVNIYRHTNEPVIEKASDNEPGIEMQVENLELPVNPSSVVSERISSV
Source text: as §1, §2
(§4) Cell lines expressing the GPCR of interest were expanded from freezer stocks according to standard procedures. Human 5-HT2A, 5-HT2B or 5-HT2C receptor-mediated calcium mobilization was evaluated in stably transfected human-derived U2OS (5-HT2A or 5-HT2B) or HEK (5-HT2B) cells. Cells were seeded in a total volume of 20 μL into black-walled, clear-bottom, Poly-D-lysine coated 384-well microplates and incubated at 37° C. overnight prior to testing. […]
as §3
(§5) Compound activity data was analyzed using CBIS data analysis suite (ChemInnovation, CA). […]

Human 5-HT2B receptor = biological target: T4, Human 5-HT2B receptor (Homo sapiens, UniProt P41595); assay: Calcium mobilization assay (Gq signaling); assay type: cell-based
T4 construct: host or cells: U2OS or HEK (the text names 5-HT2B under both)
Source text: as §1, §2, §4, §3, §5

T1 sequence (P28223 whole entry): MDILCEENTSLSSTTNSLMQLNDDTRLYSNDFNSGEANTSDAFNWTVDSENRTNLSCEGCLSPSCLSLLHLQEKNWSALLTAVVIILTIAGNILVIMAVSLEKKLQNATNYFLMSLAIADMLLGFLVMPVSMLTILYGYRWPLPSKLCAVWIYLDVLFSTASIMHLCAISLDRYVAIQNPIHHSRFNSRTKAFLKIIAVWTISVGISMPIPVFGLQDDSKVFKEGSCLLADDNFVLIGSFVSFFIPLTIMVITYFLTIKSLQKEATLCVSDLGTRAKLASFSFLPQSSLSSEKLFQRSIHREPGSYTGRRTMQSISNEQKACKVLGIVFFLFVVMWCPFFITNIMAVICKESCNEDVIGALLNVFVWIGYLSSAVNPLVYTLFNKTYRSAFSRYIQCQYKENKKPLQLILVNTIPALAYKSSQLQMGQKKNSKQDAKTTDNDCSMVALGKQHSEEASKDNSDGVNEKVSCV
T4 sequence (P41595 whole entry): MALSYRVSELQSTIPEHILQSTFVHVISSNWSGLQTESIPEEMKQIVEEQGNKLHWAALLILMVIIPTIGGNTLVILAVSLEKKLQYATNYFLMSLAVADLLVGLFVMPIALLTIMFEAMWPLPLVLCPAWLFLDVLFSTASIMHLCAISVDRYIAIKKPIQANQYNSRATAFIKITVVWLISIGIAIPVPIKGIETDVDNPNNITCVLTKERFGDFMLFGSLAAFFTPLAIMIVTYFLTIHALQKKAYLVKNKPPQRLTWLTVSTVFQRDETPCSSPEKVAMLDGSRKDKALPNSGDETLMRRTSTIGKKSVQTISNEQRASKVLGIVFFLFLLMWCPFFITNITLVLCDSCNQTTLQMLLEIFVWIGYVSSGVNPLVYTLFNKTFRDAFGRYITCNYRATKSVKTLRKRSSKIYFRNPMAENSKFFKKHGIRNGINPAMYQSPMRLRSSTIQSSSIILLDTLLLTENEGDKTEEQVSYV

Compound	agonism of 5-HT2A Gq-mediated signaling (5HT2A [1])	potency bias, 5-HT2A Gq-mediated signaling versus β-arrestin recruitment (5HT2A [1]; FIG. 1B) [fold]	increase in potency at 5-HT2A compared to 5-HT2B (5HT2A [1]; Gq signaling, FIG. 1A) [fold]	pEC50 (5HT2A [1]; calcium mobilization)	Emax (5HT2A [1]; compared to the maximum serotonin response, read-out: max activation of 5-HT2A Gq-mediated signaling) [%]	pEC50 (Human 5-HT1A receptor)	agonism / potency for β-arrestin recruitment at 5-HT2A (5HT2A [2])	pEC50 (5HT2A [2]; U2OS cells, read-out: EC50 5-HT2A (β-arrestin signaling))	Emax (5HT2A [2]; read-out: maximum efficacy levels (partial agonism), pathway not given, β-arrestin by context) [%]	activity at 5-HT receptors (5-HT receptors)	5HT2A activation (%) max @ 03 μM (5HT2A [3]) [%]	5HT2A activation (%) max @ 30 μM (5HT2A [3]) [%]	common psychedelic side effects in rats [4]	pEC50 (Human 5-HT2C receptor)	pEC50 (Human 5-HT2B receptor)
COc1cc(C)c(OC)c2c1CC(N)CC2 (stereo not shown) [Compound 1-2, 5,8-dimethoxy-6-methyl-1,2,3,4-tetrahydronaphthalen-2-amine]	full-agonism	~10	~8	7.41	97	6.36	partial agonism	6.41	66	has activity at 5-HT receptors	60.9	81.9	failed to elicit common psychedelic side effects	8.32	6.50
CNC1CCc2c(OC)ccc(OC)c2C1 (stereo not shown) [Compound 1-4, 5,8-dimethoxy-N-methyl-1,2,3,4-tetrahydronaphthalen-2-amine hydrochloride]											8.5	20.3			
COc1ccc(OC)c2c1CCCC2CN (stereo not shown) [Compound 3-1, (5,8-dimethoxy-1,2,3,4-tetrahydronaphthalen-1-yl)methanamine hydrochloride]											1.5	53			
